Where “and” joins values, the source holds several entries; their conditions need not be identical. Identical values can stand only once.
What was measured:
Format in all cases: cell-based, human
[1] = test system: telomeres, 36B4, MT-COX1, MT-CYB DNA of MKN45 cells; assay: Oxidized bases (FPG-sensitive lesions) in genome regions by qPCR; settings: MKN45, IC50 concentration 24 h, normalized to control, single replicates
Text: (§1) Total cellular DNA from MKN45 and PANC1 cells was extracted using an NZY Tissue gDNA Isolation Kit (Nzytech, MB13503) following the manufacturer’s instructions and quantified using a Nanodrop (Nanodrop Spectrophotometer ND-1000, ThermoFisher Scientific, Wilmington, DE, USA). We adapted the procedure described by O’Callaghan et al.[76] to measure oxidative DNA damage at telomeres, 36B4 genomic region and at mitochondrial DNA (MT-COX1, MT-CYB). This is a qPCR method based on differences in PCR kinetics between DNA template digested by Formamidopyrimidine DNA Glycosylase (FPG, Cat no. M0240S) and undigested DNA. This enzyme recognizes and cuts 8-oxoguanine, producing apurinic sites that are converted into single-strand breaks by its apurinic sites lyase activity. These single-strand breaks inhibit the PCR, thus, the ΔCT after digesting DNA by […] (Ct digested–Ct undigested) is proportional to the oxidative damage in the amplified region. DNA was incubated with 8 Units of FPG during 3 h in FPG buffer (NEB1, M0240S). The reaction was stopped by incubation at 95 °C for 5 min. qPCR analysis was performed on 40 ng of digested or undigested genomic DNA. Each qPCR was performed in triplicate including no-template controls in a StepOne Real‐time PCR System (Applied Biosystems, 4376357). Target genes (Table 3) were amplified using SYBR Green (Applied Biosystems, MB345). Thermal cycling of the qPCR reaction was initiated with a denaturation step at 95 °C for 10 min. The process consisted of 40 cycles (denaturation at 95 °C for 15 sec, annealing at 60 °C for 30 sec, and elongation at 72 °C for 30 sec). This experiment was repeated three independent times with 10–12 replicates.

[2] = test system: telomeres, 36B4, MT-COX1, MT-CYB DNA of PANC1 cells; assay: as above; settings: PANC1, IC50 concentration 24 h, normalized to control, single replicates
Text: as §1

MKN45 cells = assay: Immunofluorescence of γ-H2AX foci; settings: Fig. 3B; for foci/cell, number of cells in class: cell count
Method: Cells (7 × 10^4) were seeded on 20 mm coverslips. […] Coverslips were incubated for 1 h with the primary antibody (Cell Signaling: H2AX Ser139 (#2595) and 53BP1 (#4937)) at room temperature, followed by a 1 h incubation with the appropriate secondary antibody. DNA was stained with DAPI. Fluorescence microscopy was performed using a NIKON Eclipse 90i. The image analysis was performed using the software program Nikon NIS-Elements and Image J.

AGS cells = assay: Western blotting (p-p53, p-JNK, p-p38, p-ERK, p-CHK1/2, Mcl1, BID, BAX); settings: for fold change p-ERK vs Tubulin / fold change p-JNK vs Tubulin / fold change p-p38 vs Tubulin / fold change p-p53 vs Tubulin: Fig. 4A, replicate values; for fold change BAX vs Tubulin / fold change MCL1 vs Tubulin / fold change BID full length vs Tubulin: Fig. S3B
Method: (§2) Total protein extracts were obtained by adding the lysis buffer: 25 mM HEPES pH 7.5, 0.3 M NaCl, 1.5 mM MgCl2, 0.2 mM EDTA, 0.5 mM DTT, 20 mM β-glicerophosphate, 0.1 mM Na3VO4, 0.1% triton X-100; in the presence of protease inhibitors. Twenty μg of protein per sample were loaded and resolved using 8%, 10% or 15% SDS-PAGE polyacrylamide gels, and then transferred onto PVDF membranes, followed by immunodetection using appropriate antibodies, purchased from Santa Cruz Technology: Mcl-1 (sc-819), Cell Signaling Technology: BIM, BID, BAX (#9942), p-p38 (1:2000, #4631), p-p53^ser15 (#9284), p-ERK1/2 (1:2000, #9106), p-CHK1^ser345 and p-CHK2^ser19 (#9931), Promega Corporation-Spain: p-JNK (#V7932), or Sigma-Aldrich: α-tubulin (1:10000, #TP026). Unless indicated, all antibodies were diluted 1:1000. Secondary antibodies conjugated with horseradish peroxidase were purchased from BioRad, and chemiluminescence detection was performed using ECL (Santa Cruz Biotechnology).

PANC1 cells = assay: as above; settings: for fold change p-ERK vs Tubulin / fold change p-JNK vs Tubulin / fold change p-p38 vs Tubulin / fold change p-p53 vs Tubulin: PANC1, Fig. 4A, replicate values
Method: as §2

With [NH2][Pt]([NH2])([Cl])[Cl] [CDDP, cisplatin, reference compound] the “TEL (Fold change - ΔCt TEL), oxidative DNA damage” value ([1]; FPG-digested vs undigested) was 2.134 and 3.241 and 3.532 and 0.2864 and 0.7917 and 1.101 and 0.9693 and 0.9768 and 0.981 and 0.9672, the “36B4 (Fold change - ΔCt 36B4), oxidative DNA damage” value [1] was 0.8255 and 0.8326 and 1.095 and 1.237 and 1.611 and 1.72 and 2.271 and 2.214 and 1.327 and 2.203 and the “MT-COX1 (Fold change - ΔCt MT-COX1), oxidative DNA damage” value [1] was 1.028 and 1.042 and 1.044 and 1.141 and 0.8202 and 0.6032 and 2.316 and 2.623 and 3.028. The “MT-CYB (Fold change - ΔCt MT-CYB), oxidative DNA damage” value [1] was 1.38 and 1.409 and 1.605 and 1.1947 and 1.217 and 1.312 and 1.3882 and 2.275 and 1.316 and 2.313, the “TEL (Fold change - ΔCt TEL), oxidative DNA damage” value ([2]; FPG-digested vs undigested) was 4.038 and 4.138 and 5.415 and 0.6214 and 0.3967 and 0.9429 and 1.679 and 1.417 and 1.6318 and 1.586 and the “36B4 (Fold change - ΔCt 36B4), oxidative DNA damage” value [2] was 1.144 and 1.346 and 0.8021 and 1.678 and 2.371 and 2.867 and 3.452 and 2.312 and 2.5645. The “MT-COX1 (Fold change - ΔCt MT-COX1), oxidative DNA damage” value [2] was 1.1557 and 1.18 and 1.253 and 1.195 and 2.153 and 0.9478 and 1.587 and 1.014 and 1.075 and 1.118, the “MT-CYB (Fold change - ΔCt MT-CYB), oxidative DNA damage” value [2] was 1.618 and 1.296 and 1.304 and 1.472 and 1.131 and 1.532 and 1.619 and 1.965 and 6.543 and 5.482 and 6.158 and 5.629 and the “foci/cell, share of cells in class (Suma 100)” value (from here on “foci/cell, share of cells”) (MKN45 cells; class 16-30 foci/cell) was 6.667. The “foci/cell, number of cells in class” value (MKN45 cells; class 16-30 foci/cell) was 4, the “foci/cell, share of cells” value (MKN45 cells; class 31-45 foci/cell) was 13.3333 and the “foci/cell, number of cells in class” value (MKN45 cells; class 31-45 foci/cell) was 8. The “foci/cell, share of cells” value (MKN45 cells; class 46-60 foci/cell) was 16.6667, the “foci/cell, number of cells in class” value (MKN45 cells; class 46-60 foci/cell) was 10 and the “foci/cell, share of cells” value (MKN45 cells; class <15 foci/cell) was 0. The “foci/cell, number of cells in class” value (MKN45 cells; class <15 foci/cell) was 0, the “foci/cell, share of cells” value (MKN45 cells; class >61 foci/cell) was 63.3333 and the “foci/cell, number of cells in class” value (MKN45 cells; class >61 foci/cell) was 38. For the same compound, the “phosphorylation of CHK1/2 (DDR pathway, western blot)” value (AGS cells; IC50, 1, 3, 6 or 24 h) was “induced the phosphorylation”, the “fold change p-ERK vs Tubulin” value (AGS cells; Time 1 h) was 0.9528 fold change and 0.9782 fold change and 0.8139 fold change and the “fold change p-JNK vs Tubulin” value (AGS cells; Time 1 h) was 0.895 fold change and 1.558 fold change and 0.8178 fold change. For the same compound, the “fold change p-p38 vs Tubulin” value (AGS cells; Time 1 h) was 1.508 fold change and 0.8638 fold change and 1.487 fold change, the “fold change p-p53 vs Tubulin” value (AGS cells; Time 1 h) was 0.9865 fold change and 0.9436 fold change and 1.458 fold change and the “fold change p-ERK vs Tubulin” value (AGS cells; Time 3 h) was 1.409 fold change and 0.9423 fold change and 1.158 fold change. The “fold change p-JNK vs Tubulin” value (AGS cells; Time 3 h) was 1.014 fold change and 1.185 fold change and 0.899 fold change, the “fold change p-p38 vs Tubulin” value (AGS cells; Time 3 h) was 1.39 fold change and 0.6346 fold change and 1.266 fold change and the “fold change p-p53 vs Tubulin” value (AGS cells; Time 3 h) was 0.5865 fold change and 1.299 fold change and 1.138 fold change. The “fold change p-ERK vs Tubulin” value (AGS cells; Time 6 h) was 2.441 fold change and 1.161 fold change and 1.546 fold change, the “fold change p-JNK vs Tubulin” value (AGS cells; Time 6 h) was 1.257 fold change and 1.756 fold change and 0.7623 fold change and the “fold change p-p38 vs Tubulin” value (AGS cells; Time 6 h) was 0.9545 fold change and 1.021 fold change and 0.8104 fold change. The “fold change p-p53 vs Tubulin” value (AGS cells; Time 6 h) was 1.308 fold change and 1.189 fold change and 1.275 fold change, the “fold change p-ERK vs Tubulin” value (AGS cells; Time 24 h) was 2.387 fold change and 2.45 fold change and 1.9989 fold change and the “fold change p-JNK vs Tubulin” value (AGS cells; Time 24 h) was 1.302 fold change and 2.33 fold change and 0.8503 fold change. The “fold change p-p38 vs Tubulin” value (AGS cells; Time 24 h) was 0.6414 fold change and 1.823 fold change and 1.149 fold change, the “fold change p-p53 vs Tubulin” value (AGS cells; Time 24 h) was 3.183 fold change and 2.955 fold change and 1.906 fold change and the “fold change BAX vs Tubulin” value (AGS cells; time 1 h) was 1.198 fold change and 1.173 fold change and 0.877 fold change. The “fold change MCL1 vs Tubulin” value (AGS cells; time 1 h) was 1.103 fold change and 0.99 fold change and 0.761 fold change, the “fold change BAX vs Tubulin” value (AGS cells; time 3 h) was 0.789 fold change and 1.149 fold change and 1.345 fold change and the “fold change MCL1 vs Tubulin” value (AGS cells; time 3 h) was 0.575 fold change and 0.967 fold change and 0.513 fold change. The “fold change BAX vs Tubulin” value (AGS cells; time 6 h) was 1.098 fold change and 1.54 fold change and 2.188 fold change, the “fold change BID full length vs Tubulin” value (AGS cells; time 6 h) was 0.649 fold change and 1.175 fold change and 0.953 fold change and the “fold change MCL1 vs Tubulin” value (AGS cells; time 6 h) was 1.101 fold change and 0.938 fold change and 0.603 fold change. For the same compound, the “fold change BID full length vs Tubulin” value (AGS cells; time 24 h) was 1.562 fold change and 1.807 fold change and 1.427 fold change, the “fold change MCL1 vs Tubulin” value (AGS cells; time 24 h) was 0.943 fold change and 0.926 fold change and 0.668 fold change and the “phosphorylation of CHK1/2 (DDR pathway, western blot)” value (PANC1 cells; PANC1, IC50, 1, 3, 6 or 24 h) was “induced the phosphorylation”. The “fold change BAX vs Tubulin” value (PANC1 cells; PANC1, time 1 h, Fig. S3B) was 1.6915 fold change and 0.9781 fold change and 1.332 fold change, the “fold change MCL1 vs Tubulin” value (PANC1 cells; PANC1, time 1 h, Fig. S3B) was 0.9288 fold change and 1.014 fold change and 1.02 fold change and the “fold change BAX vs Tubulin” value (PANC1 cells; PANC1, time 3 h, Fig. S3B) was 1.86 fold change and 1.118 fold change and 1.518 fold change. The “fold change MCL1 vs Tubulin” value (PANC1 cells; PANC1, time 3 h, Fig. S3B) was 1.904 fold change and 2.322 fold change and 1.672 fold change, the “fold change BAX vs Tubulin” value (PANC1 cells; PANC1, time 6 h, Fig. S3B) was 1.424 fold change and 1.3785 fold change and 1.29 fold change and the “fold change MCL1 vs Tubulin” value (PANC1 cells; PANC1, time 6 h, Fig. S3B) was 1.358 fold change and 1.631 fold change and 1.901 fold change. The “fold change BAX vs Tubulin” value (PANC1 cells; PANC1, time 24 h, Fig. S3B) was 1.469 fold change and 1.617 fold change and 1.511 fold change, the “fold change BID full length vs Tubulin” value (PANC1 cells; PANC1, time 24 h, Fig. S3B) was 1.745 fold change and 2.178 fold change and 1.991 fold change and the “fold change MCL1 vs Tubulin” value (PANC1 cells; PANC1, time 24 h, Fig. S3B) was 1.279 fold change and 1.508 fold change and 1.299 fold change. The “fold change p-ERK vs Tubulin” value (PANC1 cells; Time 1 h) was 1.164 fold change and 1.13 fold change and 1.21 fold change, the “fold change p-JNK vs Tubulin” value (PANC1 cells; Time 1 h) was 1.373 fold change and 1.201 fold change and 1.17 fold change and the “fold change p-p38 vs Tubulin” value (PANC1 cells; Time 1 h) was 1.546 fold change and 1.183 fold change and 0.9863 fold change. For the same compound, the “fold change p-p53 vs Tubulin” value (PANC1 cells; Time 1 h) was 1.04 fold change and 1.08 fold change and 0.83 fold change, the “fold change p-ERK vs Tubulin” value (PANC1 cells; Time 3 h) was 0.6555 fold change and 1.708 fold change and 1.33 fold change and the “fold change p-p38 vs Tubulin” value (PANC1 cells; Time 3 h) was 0.9361 fold change and 0.959 fold change and 0.6722 fold change. For the same compound, the “fold change p-p53 vs Tubulin” value (PANC1 cells; Time 3 h) was 1.501 fold change and 1.122 fold change and 1.403 fold change, the “fold change p-ERK vs Tubulin” value (PANC1 cells; Time 6 h) was 0.4691 fold change and 2.127 fold change and 1.29 fold change and the “fold change p-JNK vs Tubulin” value (PANC1 cells; Time 6 h) was 0.7555 fold change and 0.4269 fold change and 0.7284 fold change. The “fold change p-p38 vs Tubulin” value (PANC1 cells; Time 6 h) was 0.8737 fold change and 0.5515 fold change and 0.5907 fold change, the “fold change p-p53 vs Tubulin” value (PANC1 cells; Time 6 h) was 2.227 fold change and 1.131 fold change and 2.015 fold change and the “fold change p-ERK vs Tubulin” value (PANC1 cells; Time 24 h) was 0.8571 fold change and 2.648 fold change and 1.55 fold change. For the same compound, the “fold change p-JNK vs Tubulin” value (PANC1 cells; Time 24 h) was 0.8188 fold change and 0.748 fold change and 1.253 fold change, the “fold change p-p38 vs Tubulin” value (PANC1 cells; Time 24 h) was 1.702 fold change and 0.3951 fold change and 0.5063 fold change and the “fold change p-p53 vs Tubulin” value (PANC1 cells; Time 24 h) was 2.03 fold change and 4.05 fold change and 2.63 fold change.

From PMC10959927, “Platinum iodido drugs show potential anti-tumor activity, affecting cancer cell metabolism and inducing ROS and senescence in gastrointestinal cancer cells” (Communications Biology, 2024)
